Here are results for 22 compounds from patent publication US7947694B2, “Substituted pyrazolo[3,4-D]pyrimidines as cell cycle kinase inhibitors” (Janssen Pharmaceutica NV, priority 2005, dated 2011).

Where a name gives a salt, the structure may show the parent alone. A value given as a limit tells only on which side of the number the result lay.

In one series the target is CDK4/cyclinD1 (Homo sapiens, UniProt P11802). Description: In vitro filtration assay for CDK4 inhibitory activity. Format: biochemical. The settings on record: GST-pRb phosphorylation, [33P]-ATP, 1 μM unlabeled ATP, 25° C., 45 minutes; read-out: cdk4 filter (pIC50) (converted). Here is the method: C.1. In Vitro Filtration Assay for CDK4 Inhibitory Activity
Compounds of the present invention were tested in an in vitro filtration assay assessing CDK4 activity by means of its pRb-phosphorylation activity using [^33P]-ATP as phosphor donor. The radioactive phosphorylated pRb is then captured on filtermats and the incorporated [^33P] quantitated using a phosphorage storage screen.
The CDK4 kinase reaction is performed at 25° C. for 45 minutes in a 96-well microtiterplate. The 25 μl reaction volume contains 50 mM Hepes pH 7.5, 10 mM NaF, 10 mM MgCl2, 1 mM Na3VO4, 1 μM unlabeled ATP, 1 mM DTT, 0.5 μCi AT^33P, 0.76 μg/well GST-pRb, 50 ng CDK4/cyclinD1/well and 0.2% compound in 100% DMSO.
(§1) The reaction is stopped by adding 5 μl of a 3% phosphoric acid solution. 10 μl of the reaction mixture is then spotted onto a Filtermat P30 filter (Wallac) and washed 3 times for 5 min. in 75 mM phosphoric acid and 1 time for 5 min. in methanol prior to drying and quantification on the Typhoon (Amersham) using a phosphorage storage screen.
(§2) C.4. Calculation of pIC50 Values
(§3) For each experiment, controls (containing enzyme (complex) and DMSO without compound), a blank incubation (containing DMSO but no enzyme (complex) or compound) and samples (containing enzyme (complex) and compound dissolved in DMSO) were run in parallel. All compounds tested were dissolved and eventually further diluted in DMSO. […] In each test, the blank value was subtracted from both the control and the sample values. The control sample represented maximal enzyme activity. For each sample, the amount of cpm was expressed as a percentage of the mean cpm value of the controls. When appropriate, IC50-values (concentration of the drug, needed to reduce the enzyme activity to 50% of the control) were computed using linear interpolation between the experimental points just above and below the 50% level. Herein the effects of test compounds are expressed as pIC50 (the negative log value of the IC50-value).

The target in the next series is Aurora-B (Homo sapiens, UniProt Q96GD4). Description: In vitro filtration assay for AURORA B inhibitory activity. Format: biochemical. Particulars: peptide (C(LRRWSLG)×4) substrate, [33P]-ATP, 1 μM unlabeled ATP, 25° C., 40 minutes; read-out: Aurora B see C.3 (pIC50) (converted). The protocol:
C.3 In Vitro Filtration Assay for AURORA B Inhibitory Activity
Compounds of the present invention were tested in an in vitro filtration assay assessing AURORA B activity by means of its substrate-phosphorylation activity using [^33P]-ATP as phosphor donor. The radioactive phosphorylated substrate is then captured on filtermats and the incorporated [^33P] quantitated using a phosphorage storage screen.
The Aurora-B kinase reaction is performed at 25° C. for 40 minutes in a 96-well microtiterplate. The 25 μl reaction volume contains 60 mM Hepes pH 7.5, 3 mM MgCl2, 3 mM MnCl2, 3 μM Na3VO4, 50 μg/ml PEG20000, 1 μM unlabeled ATP, 1 mM DTT, 0.2 μCi AT^33P, 0.25 μg/well peptide (C(LRRWSLG)×4), 100 ng Aurora-B/well and 0.2% compound in 100% DMSO.
as §1, §2, §3

A further series deals with T1, Aurora A (Homo sapiens, UniProt O14965).
T1 sequence (O14965 1-403): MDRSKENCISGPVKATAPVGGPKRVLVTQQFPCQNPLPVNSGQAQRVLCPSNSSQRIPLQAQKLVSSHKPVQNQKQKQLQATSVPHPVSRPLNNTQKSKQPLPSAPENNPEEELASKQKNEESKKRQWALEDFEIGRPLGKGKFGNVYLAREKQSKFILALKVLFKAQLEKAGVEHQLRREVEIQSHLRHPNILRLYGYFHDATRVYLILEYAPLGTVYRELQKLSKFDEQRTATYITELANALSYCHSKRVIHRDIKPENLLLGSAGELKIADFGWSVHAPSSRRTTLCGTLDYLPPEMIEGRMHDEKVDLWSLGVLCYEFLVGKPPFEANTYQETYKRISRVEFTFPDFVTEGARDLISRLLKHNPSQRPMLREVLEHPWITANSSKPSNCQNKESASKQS
Description: In vitro filtration assay for AURORA A inhibitory activity. Particulars: 200 μM Kemptide substrate, [33P]-ATP, 1 μM unlabeled ATP, 25° C., 40 minutes; read-out: Aurora A see C.2 (pIC50) (converted). Format: biochemical. The protocol:
C.2. In Vitro Filtration Assay for AURORA A Inhibitory Activity
Compounds of the present invention were tested in an in vitro filtration assay assessing AURORA A activity by means of its substrate-phosphorylation activity using [^33P]-ATP as phosphor donor. The radioactive phosphorylated substrate is then captured on filtermats and the incorporated [^33P] quantitated using a phosphorage storage screen.
The Aurora-A kinase reaction is performed at 25° C. for 40 minutes in a 96-well microtiterplate. The 25 μl reaction volume contains 12 mM MOPS pH 7, 0.4 mM EDTA, 0.002% Brij35, 1% glycerol, 0.02% beta-mercapto-ethanol, 0.2 mg/ml BSA, 1 μM unlabeled ATP, 0.2 μCi [^33P]-ATP, 200 μM Kemptide, 3 ng Aurora A/well and 0.2% compound in 100% DMSO.
as §1, §2, §3

Chain of CDK4/cyclinD1 (P11802 whole entry, species assumed): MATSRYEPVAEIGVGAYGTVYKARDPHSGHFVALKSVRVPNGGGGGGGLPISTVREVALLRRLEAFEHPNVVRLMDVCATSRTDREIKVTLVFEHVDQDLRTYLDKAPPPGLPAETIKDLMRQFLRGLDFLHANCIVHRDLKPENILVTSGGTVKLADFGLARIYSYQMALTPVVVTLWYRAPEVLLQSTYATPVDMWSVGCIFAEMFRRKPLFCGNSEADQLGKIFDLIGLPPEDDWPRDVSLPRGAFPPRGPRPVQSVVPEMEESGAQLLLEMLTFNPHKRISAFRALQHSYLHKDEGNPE
Chain of CDK4/cyclinD1 (P24385 whole entry partner, species assumed): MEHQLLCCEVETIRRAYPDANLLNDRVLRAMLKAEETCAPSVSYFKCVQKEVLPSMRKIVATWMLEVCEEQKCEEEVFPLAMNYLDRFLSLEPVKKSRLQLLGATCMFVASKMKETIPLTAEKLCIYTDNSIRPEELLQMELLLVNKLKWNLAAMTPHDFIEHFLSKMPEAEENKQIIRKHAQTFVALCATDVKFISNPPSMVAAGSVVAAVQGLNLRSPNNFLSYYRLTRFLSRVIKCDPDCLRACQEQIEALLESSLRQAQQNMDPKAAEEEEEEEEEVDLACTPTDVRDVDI
Chain of Aurora-B (Q96GD4 whole entry): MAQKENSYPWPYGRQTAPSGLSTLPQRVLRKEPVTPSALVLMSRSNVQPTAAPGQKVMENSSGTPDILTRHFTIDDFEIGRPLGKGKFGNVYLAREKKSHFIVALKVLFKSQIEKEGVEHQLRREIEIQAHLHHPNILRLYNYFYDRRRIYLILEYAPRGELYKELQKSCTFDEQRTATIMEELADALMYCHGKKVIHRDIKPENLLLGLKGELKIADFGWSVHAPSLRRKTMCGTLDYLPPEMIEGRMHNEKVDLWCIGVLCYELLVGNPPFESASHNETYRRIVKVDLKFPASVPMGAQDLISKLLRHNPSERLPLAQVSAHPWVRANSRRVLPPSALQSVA

Turning to `O=C(NC1Cc2ccccc2C1)c1ccc(Nc2ncc3cnn(C4CCCCC4)c3n2)cc1` [Co. No. 17], the values for the IC50 at CDK4/cyclinD1, at Aurora-B and on Aurora A were 63.1 nM, 501 nM and 316 nM, respectively.

With `CC(C)(C)OC(=O)N(Cc1ccc(Nc2ncc3cnn(C4CCCCC4)c3n2)cc1)C1Cc2ccccc2C1` [Co. No. 15], the results for the IC50 on CDK4/cyclinD1, at Aurora-B and on Aurora A were greater than 10000 nM, greater than 10000 nM and 1000 nM, respectively.

For `COCCCN(Cc1ccc(Nc2ncc3cnn([C@H]4C[C@@H]5CC[C@H]4C5)c3n2)cc1)C(=O)OC(C)(C)C` [Co. No. 11], the figures for the IC50 on CDK4/cyclinD1, at Aurora-B and on Aurora A were 2000 nM, 5010 nM and 794 nM, respectively.

In the case of `CC(C)(C)OC(=O)N(Cc1ccc(Nc2ncc3cnn([C@H]4C[C@@H]5CC[C@H]4C5)c3n2)cc1)C1Cc2ccccc2C1` [Co. No. 20], the IC50 at CDK4/cyclinD1 is greater than 10000 nM; on Aurora-B it was greater than 10000 nM; at Aurora A it was 6310 nM.

In the case of `CCN(CC)CCNC(=O)c1ccc(Nc2ncc3cnn(C4CCCCC4)c3n2)cc1` [Co. No. 6], the IC50 is 25.1 nM at CDK4/cyclinD1, greater than 10000 nM at Aurora-B and 1580 nM at Aurora A.

With `c1ccc2c(c1)CC(NCc1ccc(Nc3ncc4cnn([C@H]5C[C@@H]6CC[C@H]5C6)c4n3)cc1)C2` [Co. No. 4], the values for the IC50 on CDK4/cyclinD1, on Aurora-B and on Aurora A were 25.1 nM, 316 nM and 316 nM, respectively.

By melting point is commonly meant the temperature of the solid-liquid transition. `c1ncn(-c2ccc(Nc3ncc4cnn(C5CCCCC5)c4n3)cc2)n1` [Co. No. 3] had a melting point of 222.5 to 224 °C. Further, at CDK4/cyclinD1, the IC50 was 15.8 nM. The IC50 at Aurora-B was 7940 nM. Moreover, the IC50 on Aurora A was 126 nM.

As to `CN(C)CCOC(=O)c1ccc(Nc2ncc3cnn(C4CCCCC4)c3n2)cc1` [Co. No. 21], the IC50 at CDK4/cyclinD1 is 100 nM; on Aurora-B, 7940 nM; on Aurora A, 631 nM.

In the case of `c1cc2cc(Nc3ncc4cnn(C5CCCCC5)c4n3)ccc2[nH]1` [Co. No. 14], the figures for the IC50 on CDK4/cyclinD1, on Aurora-B and at Aurora A were 158 nM, 7940 nM and 316 nM, respectively.

For `CCN(CC)CC(O)COc1ccc(Nc2ncc3cnn(C4CCCCC4)c3n2)cc1` (centres unmarked) [Co. No. 1], the IC50 is 7.94 nM on CDK4/cyclinD1, greater than 10000 nM on Aurora-B and 1580 nM at Aurora A.

With `CC(C)(C)OC(=O)N(c1ccc(CN(C(=O)OC(C)(C)C)C2Cc3ccccc3C2)cc1)c1ncc2cnn([C@H]3C[C@@H]4CC[C@H]3C4)c2n1` [Co. No. 19], the IC50 at CDK4/cyclinD1 was greater than 10000 nM; on Aurora-B, 631 nM; on Aurora A it was 158 nM.

For the compound `COCCCNCc1ccc(Nc2ncc3cnn(C4CCCCC4)c3n2)cc1` [Co. No. 2], the results for the IC50 on CDK4/cyclinD1, at Aurora-B and at Aurora A were 6.31 nM, greater than 10000 nM and 158 nM, respectively.

Regarding `COCCCNCc1ccc(Nc2ncc3cnn([C@H]4C[C@@H]5CC[C@H]4C5)c3n2)cc1` [Co. No. 9], the IC50 on CDK4/cyclinD1 is 79.4 nM; at Aurora-B, 158 nM; at Aurora A, 251 nM.

Turning to `c1ccc2c(c1)CC(NCc1ccc(Nc3ncc4cnn(C5CCCCC5)c4n3)cc1)C2` [Co. No. 16], the IC50 was 12.6 nM on CDK4/cyclinD1, 7940 nM at Aurora-B and 251 nM at Aurora A.

Turning to `COCCCNCc1ccc(Nc2ncc3cnn([C@H]4C[C@@H]5CC[C@H]4C5)c3n2)cc1` [Co. No. 10], the IC50 is 31.6 nM at CDK4/cyclinD1, 200 nM at Aurora-B and 200 nM at Aurora A.

Regarding `CCN(CC)CCCOc1ccc(Nc2ncc3cnn(C4CCCCC4)c3n2)cc1` [Co. No. 7], the IC50 is 20 nM on CDK4/cyclinD1, greater than 10000 nM on Aurora-B and greater than 10000 nM on Aurora A.

Turning to `COCCCNCc1ccc(Nc2ncc3cnn(C4CCOCC4)c3n2)cc1` [Co. No. 12], the figures for the IC50 at CDK4/cyclinD1, at Aurora-B and on Aurora A were 631 nM, 7940 nM and 3980 nM, respectively.

As to `COCCCN(Cc1ccc(Nc2ncc3cnn(C4CCOCC4)c3n2)cc1)C(=O)OC(C)(C)C` [Co. No. 13], the IC50 was 2000 nM on CDK4/cyclinD1, 794 nM at Aurora-B and 100 nM on Aurora A.

For `COCCCNS(=O)(=O)c1ccc(Nc2ncc3cnn(C4CCCCC4)c3n2)cc1` [Co. No. 5], the IC50 is 1260 nM at CDK4/cyclinD1, greater than 10000 nM at Aurora-B and 631 nM on Aurora A.

Regarding `COCCCN(Cc1ccc(Nc2ncc3cnn(C4CCCCC4)c3n2)cc1)C(=O)OC(C)(C)C` [Co. No. 8], the IC50 on CDK4/cyclinD1 was 1000 nM; on Aurora-B, greater than 10000 nM; at Aurora A, 631 nM.

As to `c1ccc2c(c1)CC(NCc1ccc(Nc3ncc4cnn(C5CCOCC5)c4n3)cc1)C2` [Co. No. 18], the figures for the IC50 on CDK4/cyclinD1, at Aurora-B and on Aurora A were 63.1 nM, 6310 nM and 3160 nM, respectively.

In turn, `COCCCNCc1ccc(Nc2ncc3cnn(C4CCCCC4)c3n2)cc1` (as salt: HCl) [Co. No. 2] displayed a melting point of 212 to 214 °C.
